Test results reported in patent publication US12534439B2, “Xanthohumol derivatives and methods for making and using” (Oregon State University, priority 2021, dated 2026).

System: LPS-activated RAW 264.7 cells
Experiment: Nitric oxide (NO) assay, Griess reagent
Assay type: cell-based
Conditions: LPS 1 μg/mL, 24 hours
Experimental: Nitric Oxide (NO) Assay. NO secreted by LPS-activated RAW 264.7 cells into the culture medium was determined as nitrite by the Griess reagent. RAW 264.7 1 cells obtained from the American Type Culture Collection (Manassas, VA, USA) were cultured in DMEM supplemented with 2 mM glutamine, antibiotics (100 U/mL penicillin and 100 μg/mL streptomycin), and 10% heat-inactivated fetal bovine serum. The cells were initially grown in 75 cm^2 culture flasks at 37° C. in a humidified incubator with 5% CO2. After reaching 80% confluency, the cells were split by seeding them on 96-well plates (0.2 mL/well) at a density of 1.5×10^5 cells/mL. After a 24-hour incubation at 37° C., the cells were treated with LPS (1 μg/mL) with or without test compounds in various concentrations. Vehicle control cells were treated with dimethyl sulfoxide alone at a final concentration of 0.1%. Culture media from control and treated cells were collected after 24 hours of incubation and were frozen at −80° C. before analysis. For the determination of NO (as […]), […], aliquots of the thawed culture media were mixed with an equal volume of Griess reagent on a 96-well plate. […] The samples were incubated for 10 minutes at room temperature and then the absorbance was read at 550 nm using a SpectraMax 190 (Molecular Devices, Sunnyvale, CA) plate reader.

COc1cc(O)c(CC=C(C)C)c(O)c1-c1cc(-c2ccc(O)cc2)on1 [isoxazole derivative, 4-(5-(4-hydroxyphenyl)isoxazol-3-yl)-5-methoxy-2-(3-methylbut-2-en-1-yl)benzene-1,3-diol]
Concentration from which anti-inflammatory activity (decreased NO production) was displayed: ~10 µM
